Source: paper PMC11344821 (Scientific Reports, 2024)
≈ marks a conversion by molar mass, not a printed value.

Assays:
[1] = Particle size analysis by laser diffraction; conditions: for Particle size D10 / Particle size D50 / Particle size D90 / Particle size D99 / Volume mean diameter (VMD): laser diffraction, dry dispersion 3 bar, n = 3
Procedure: Laser diffraction was employed to measure particle size using a Sympatec HELOS/BR particle size analyser equipped with a RODOS dry dispersing system with VIBRI/I feeder (Clausthat-Zellerfield, Germany). Approximately 0.5g of sample was placed on to the VIBRI/L feeder tray and dispersed through a RODOS disperser with 3 bars of pressure. The volume mean diameter (VMD) of each sample was detected on the HELOS/BR set at a measuring range of 0–175 µm. All powders were measured in triplicate (n = 3), and the software calculate the 10% (D10), median (D50), 90% (D90) particle sizes and the volume mean diameter (VMD).
Milled samples were prepared using a Fritsch Pulverisette 7 planetary ball mill (Idar-Oberstein, Germany). Powders were accurately weighed according to the BPR. The samples were transferred into agate vials (45 cm^3 Volume) along with 8 agate balls (10mm diameter). The vials were then sealed with a plastic ring to prevent atmospheric contamination.

[2] = tested on: Staphylococcus aureus NCTC 10788; test: Minimum lethal concentration (MLC), sub-culture on TSA plates; format: cell-based; conditions: S. aureus NCTC 10788; tubes with no turbidity plated on TSA, overnight 37 °C; lowest concentration with no colony formation; listed as Control
Procedure: Overnight cultures of S. aureus were grown by inoculating a bacterial colony in 10 mL sterile TSB, incubated overnight at 37 °C in a shaking incubator. The overnight culture (1 × 10^9 bacterial cells/mL) was 100 folds diluted to achieve a concentration of 1 × 10^7 bacterial cells/mL.
10 sterile tubes were labelled from 1 to 10, followed by aseptic transfer of 5 mL of sterile TSB into each tube. […] 5 mL solution from tube 1 was then aseptically added to 5 mL TSB in tube 2, and thoroughly mixed and vortexed. This process was repeated for tubes 3–8. Tubes 9 and 10 were used as positive and negative controls, respectively. Once the process of dilution was completed, 100 µL from the 100 folds diluted S. aureus overnight culture was aseptically transferred into tunes 1–9, and incubated at 37 °C in a static incubator for 24 h. […] MICs were taken as the lowest concentrations with no turbidity (no visible bacterial growth).
Following this, the contents from the tubes with no turbidity were inoculated on Tryptic Soy Agar (TSA) plates, and incubated overnight at 37 °C in a static incubator.

[3] = cited from earlier work

| SMILES | Particle size D10 [1] [μm] | Particle size D50 [1] [μm] | Particle size D90 [1] [μm] | Particle size D99 [1] [μm] | Volume mean diameter (VMD) [1] [µm] | Particle size after ball milling relative to original size pre-ball mill ([1]; 15 min, 400 rpm, ball to powder ratio 8) [%] | Change in particle size in time-trial stability study over 28 days ([1]; day 0, 1, 3, 7, 14, 28, ANOVA, P > 0.05) | MLC [2] [µg/mL] | Drug eliminated primarily through the renal route [3] | Oral bioavailability (absorbed orally) ([3]; oral route) |
| --- | --- | --- | --- | --- | --- | --- | --- | --- | --- | --- |
| N[C@@H](CCC(=O)O)C(=O)O [Formulation G0, L-glutamic acid] | 6.97 | 22.56 | 48.37 | 70.49 | 25.45 | – | – | – | – | – |
| N[C@@H](CCC(=O)O)C(=O)O [Formulation G1, L-glutamic acid] | 0.99 | 7.86 | 21.15 | 33.58 | 9.67 | – | – | – | – | – |
| N[C@@H](CCC(=O)O)C(=O)O [Formulation G2, L-glutamic acid] | 0.54 | 1.62 | 5.46 | 8.31 | 2.35 | 4 | no significant change in size | – | – | – |
| N[C@@H](CCC(=O)O)C(=O)O [Formulation G3, L-glutamic acid] | 0.64 | 3.08 | 11.63 | 17.01 | 4.75 | – | – | – | – | – |
| CN[C@H](CC(C)C)C(=O)N[C@H]1C(=O)N[C@@H](CC(N)=O)C(=O)N[C@H]2C(=O)N[C@H]3C(=O)N[C@H](C(=O)N[C@H](C(=O)O)c4cc(O)cc(O)c4-c4cc3ccc4O)[C@H](O)c3ccc(c(Cl)c3)Oc3cc2cc(c3O[C@@H]2O[C@H](CO)[C@@H](O)[C@H](O)[C@H]2O[C@H]2C[C@](C)(N)[C@H](O)[C@H](C)O2)Oc2ccc(cc2Cl)[C@H]1O [vancomycin] | – | – | – | – | 51.64 | – | – | 6.25 (≈ 4.31 µM) | 80–90% | less than 10% |
